Experimental data reported in patent US20080227813A1, “Pharmaceutical compositions and methods for treating diseases associated with neurodegeneration” (priority 2006, published 2008).
Read-outs that look alike come from different tables or passages of the source.

What was measured:
[1] = system: patients with ALS; conditions: high dose
Procedure: A clinical trial was conducted to assess the safety and tolerability of Compound I, at three dosages (75, 150, and 300 mg/day) as compared with placebo over 12 weeks of treatment in 80 patients with ALS. It was also conducted to determine the pharmacokinetic characterization of Compound I in serum, as well as cerebrospinal fluid (CSF) penetration, in a subset of the 80 patients participating in the study. This information was correlated with safety measures.
Methodology: This study was a multicenter, double-blind, placebo-controlled study of outpatients with ALS. Eighty subjects at 8-10 centers were enrolled. Subjects received placebo, 25 mg tid, 50 mg tid or 100 mg tid Compound I daily. All 80 subjects received treatment to determine safety and tolerability after 12 weeks of daily treatment. Follow-up visits occurred at 2, 4, 6, 8, 10, 12, and 16 weeks. A subset of participants were admitted to the General Clinical Research Center (GCRC), clinical research center or other department for serum pharmacokinetic studies at Baseline and Week 4, with additional trough serum sampling at Weeks 2, 8, and 12. Cerebrospinal fluid (CSF) penetration was only be evaluated at Week 4.

[2] = dog, in vivo
[3] = system: Beagle dogs; assay: 28-day repeated dose oral toxicity study in dogs; format: in vivo, dog; conditions: for No observed adverse effect level (NOAEL): Beagle dogs male and female, 28-day oral
Procedure: The control animals were treated in the same manner with placebo gelatin capsules.
Pre-treatment: hematological, clinical chemistry and ECG investigations and opthalmoscopic examinations were performed.
During the treatment period: check of mortality and clinical observation were performed at least twice daily and weighing the non-consumed food was performed daily. The body weights of animals were measured once a week. At the end of the treatment, hematological laboratory and ECG investigations, opthalmoscopic examinations, gross necropsy, histopathological and histometrical examinations were performed.

[4] = system: CRL:(WI)BR rats; assay: Acute oral toxicity in rats; format: in vivo; conditions: rat
Procedure: All animal toxicology studies were performed at Toxicological Research Centre (Veszprém, Hungary) using protocols compliant with OECD guidelines and Principles of Good Laboratory Practice. Following is a summary of the studies conducted.
Acute oral toxicity studies were performed in rats (CRL(WI:)BR) and in mice (CRL: NMRI BR). A control and five dose groups were involved in the rat study at dose levels of 2000 mg/kg, 2600 mg/kg, 3400 mg/kg, 4400 mg/kg and 5700 mg/kg (equal to 1241 mg/kg, 1613 mg/kg, […], 2729 mg/kg and 3535 mg/kg free base, n=5 animals/sex/group).

[5] = human, in vivo
[6] = Relative animal toxicokinetic and human pharmacokinetic drug exposures; format: in vivo; conditions: maximum human drug exposure (100 mg tid) = 1.0
[7] = dog, 70-210 mg/kg/day oral, 28 days

## [O-][n+]1cccc(/C(Cl)=N/OC[C@H](O)CN2CCCCC2)c1 [Compound I, N-[2-hydroxy-3-(1-piperidinyl)-propoxy]-pyridine-1-oxide-3-carboximidoyl chloride]
[1]; patients also treated with riluzole, not statistically significant
  effect on ALSFRS-R: may improve ALSFRS-R
[1]; patients not treated with riluzole
  effect on average ALSFRS-R score: no effect
[2]
  major elimination route: eliminated with urine
[2]; iv
  AUC of radioactivity relative to parent compound: about 8 times
[2]; iv, 6.45 mg/kg
  central volume of distribution Vc: 1.50 ± 0.5 L/kg
  first apparent elimination half-life: 0.33 ± 0.51 h
  second apparent elimination half-life: 1.26 ± 0.20 h
[2]; po
  mean AUC of radioactivity relative to parent compound: about 10 times
  peak concentration of radioactivity relative to Compound I: 1.7 times
  radioactivity concentration at two weeks: 0.014±0.004 μgE/ml
  serum radioactivity at 12 h, share of peak: about 15%
[2]; po, 6.45 mg/kg
  absorption half-life: 0.38 h
  oral bioavailability: 77%
  oral bioavailability of total radioactivity: 104%
  peak concentration: 0.94 ± 0.37 µg/mL
  start of absorption after dosing: 15 to 120 min
  time of peak concentration: 1 to 2 h
[3]; by base
  No observed adverse effect level (NOAEL): 43.4 mg/kg/day
[3]; by citrate
  No observed adverse effect level (NOAEL): 70 mg/kg/day
[3]; [7]
  ECG and ophthalmologic alterations: did not cause ECG and opthalmologic alterations
  mortality: No deaths occurred
[4]; female, by base
  Oral LD50 value: 1977 - by base mg/kg
[4]; female, by citrate
  Oral LD50 value: 3188 - by citrate mg/kg
[4]; male, by base
  Oral LD50 value: 1754 (1425-2146) - by base mg/kg
[4]; male, by citrate
  Oral LD50 value: 2828 (2297-3460) - by citrate mg/kg
[5]
  route of removal: mostly removed unchanged in urine
[5]; po
  Mean t1/2 values: 2.5 to 6.2 h
  Tmax values: 0.5 to 1.1 h
  t1/2: 4 h
[5]; po, 50 mg
  AUC(0-t), GeoMean: 590 ng·h/mL
  AUC(0-t), Mean: 600 ng·h/mL
  AUC, GeoMean: 640 ng·h/mL
  AUC, Mean: 650 ng·h/mL
  Cmax, GeoMean: 160 ng/mL
  Cmax, Mean: 170 ng/mL
  MRT, GeoMean: 3.4 h
  MRT, Mean: 3.5 h
  Tmax, GeoMean: 0.82 h
  Tmax, Mean: 0.9 h
  t½, GeoMean: 3 h
  t½, Mean: 3.1 h
[5]; po, 100 mg
  AUC(0-t), GeoMean: 1400 ng·h/mL
  AUC(0-t), Mean: 1400 ng·h/mL
  AUC, GeoMean: 1600 ng·h/mL
  AUC, Mean: 1600 ng·h/mL
  Cmax, GeoMean: 390 ng/mL
  Cmax, Mean: 400 ng/mL
  MRT, GeoMean: 3.7 h
  MRT, Mean: 3.8 h
  Tmax, GeoMean: 1 h
  Tmax, Mean: 1.1 h
  t½, GeoMean: 3.5 h
  t½, Mean: 3.7 h
[5]; po, 200 mg
  AUC(0-t), GeoMean: 2700 ng·h/mL
  AUC(0-t), Mean: 2700 ng·h/mL
  AUC, GeoMean: 2800 ng·h/mL
  AUC, Mean: 2800 ng·h/mL
  Cmax, GeoMean: 890 ng/mL
  Cmax, Mean: 890 ng/mL
  MRT, GeoMean: 3.7 h
  MRT, Mean: 3.8 h
  Tmax, GeoMean: 0.82 h
  Tmax, Mean: 0.9 h
  t½, GeoMean: 3.1 h
  t½, Mean: 3.1 h
[5]; po, 400 mg
  AUC(0-t), GeoMean: 6200 ng·h/mL
  AUC(0-t), Mean: 6300 ng·h/mL
  AUC, GeoMean: 6300 ng·h/mL
  AUC, Mean: 6400 ng·h/mL
  Cmax, GeoMean: 1800 ng/mL
  Cmax, Mean: 1800 ng/mL
  MRT, GeoMean: 4.5 h
  MRT, Mean: 4.5 h
  Tmax, GeoMean: 0.82 h
  Tmax, Mean: 0.9 h
  t½, GeoMean: 4 h
  t½, Mean: 4.1 h
[5]; po, 600 mg
  AUC(0-t), GeoMean: 8900 ng·h/mL
  AUC(0-t), Mean: 9100 ng·h/mL
  AUC, GeoMean: 9000 ng·h/mL
  AUC, Mean: 9200 ng·h/mL
  Cmax, GeoMean: 2900 ng/mL
  Cmax, Mean: 3000 ng/mL
  MRT, GeoMean: 3.9 h
  MRT, Mean: 4 h
  Tmax, GeoMean: 0.5 h
  Tmax, Mean: 0.5 h
  t½, GeoMean: 4.2 h
  t½, Mean: 4.3 h
[5]; po, 800 mg
  AUC(0-t), GeoMean: 12000 ng·h/mL
  AUC(0-t), Mean: 12000 ng·h/mL
  AUC, GeoMean: 12000 ng·h/mL
  AUC, Mean: 12000 ng·h/mL
  Cmax, GeoMean: 3700 ng/mL
  Cmax, Mean: 3800 ng/mL
  MRT, GeoMean: 4.1 h
  MRT, Mean: 4.1 h
  Tmax, GeoMean: 0.76 h
  Tmax, Mean: 0.8 h
  t½, GeoMean: 3.4 h
  t½, Mean: 3.5 h
[6]; AUC
  Fold-above minimum effective mouse exposure: 12
  Fold-above minimum effective rat exposure: 5.9
  Fold-below dog drug exposure at NOAEL: 17
  Fold-below rat drug exposure at NOAEL: 6.0
[6]; Cmax
  Fold-above minimum effective mouse exposure: 2.8
  Fold-above minimum effective rat exposure: 1.4
  Fold-below dog drug exposure at NOAEL: 5
  Fold-below rat drug exposure at NOAEL: 28
